Columns and labels:
[1] = system: CD1 mouse model of streptozotocin (STZ)-induced diabetic nephropathy; assay: Streptozotocin (STZ)-induced diabetic nephropathy; assay type: in vivo; conditions: ip 5 mg/kg/24 hr; after one month treatment
Experimental: Reversal of interstitial fibrosis by Thrasos compound SEQ ID NO 45 in a CD1 mouse model of streptozotocin (STZ)-induced diabetic nephropathy. FIG. 7A. schematic of the experimental protocol, FIG. 7B: Kidney section of vehicle-treated animal, FIG. 7C: Kidney section of animal received ip administration of Thrasos compound (5 mg/kg/24 hr). Sac: After one month treatment.

[2] = system: Smad1; assay: Smad1 nuclear translocation in HK-2 cells (immunofluorescence); assay type: cell-based, human; conditions: 1.3 uM and 33 uM compound
Experimental: Phosphorylation and nuclear translocation of Smads occurs following the activation of Type I and Type II receptors and subsequent signal transduction to intracellular Smad targets. Phosphorylation and nuclear translocation of R-Smad in HK-2 cells by TDFRP compounds is assayed by immuno-fluorescent microscopy methods, using anti-phospho Smad 1/5 antibodies according to the procedure of H Aoki, M Fujii, T Imamura, K Yagi, K Takehara, M Kato and K Miyazono. J. of Cell Sci. 114, 1483-1489, 2001) and by Western blot analysis (FIG. 15A-FIG. 15C).
HK2, human proximal tubule cells are incubated in culture medium alone or exposed TDFRP or control compounds for one hour ten minutes at 37 degree C. BMP-7 served as a positive control in the assay. Each well is rinsed with 1 mL prewarmed medium. 1 mL per well of cold Acetone/Methanol mix (1:1) is added and incubated for 2 minutes at room temperature to fix the cells. Wells are washed with 1 mL of cold PBS and blocked with 1 mL blocking buffer (3% BSA, 1% goat serum in PBS) for 7 minutes. Wells are aspirated without disturbing the cells, and 500 uL/well primary antibody is added (anti-phospho-Smad 1) at 0.056 ug/mL concentration in 3% BSA in PBS (no goat serum). Cells are incubated overnight at 4 degrees C. […]

[3] = system: HK-2 cells; assay: Apoptosis detection using Annexin V immunostaining after cisplatin; assay type: cell-based, human; conditions: 10 uM cisplatin; 500 uM compound prophylactically or therapeutically
Experimental: Apoptosis and cell viability are quantified using AnnexinV-FITC and propidium iodide staining of HK-2 cells following cisplatin treatment Immortalized PTEC-derived HK-2 cells (ATCC number CRL-2190) are cultured in serum-free keratinocyte medium (GIBCO number 17005-042) supplemented with EGF and BPE for 48 hours (Ryan et al. 1994 Kidney Int 45:48-57). Medium is aspirated and cells are washed with PBS and incubated in the dark for 15 min at room temperature with 10 μl of media binding agent and 1.25 μl of FITC conjugated AnnexinV. Propidium iodide (10 μl) is added, and samples are analyzed immediately. Quantification of Annexin V-FITC and propidium iodide signals is performed by fluorescence microscopy (Axiovert 135; Carl Zeiss). Phase contrast images are observed using transmitted light. Apoptotic cells show cytoplasmic staining and viable cells remain unstained (FIG. 14A-FIG. 14D).

[4] = system: renal toxic effects of cisplatin in the rat; assay: Cisplatin renal toxicity in male Sprague-Dawley rat; assay type: in vivo
Experimental: Compound (SEQ ID #45) was tested in male Sprague-Dawley rats (250 gm to 300 gm) to establish the dose range and the extent to which the compound is able to prophylactically and therapeutically ameliorate the renal toxic effects of cisplatin. The cisplatin dosing level was the chemotherapeutic level used in humans, 40 ug/kg bw. The end points were the level of creatinine in serum and kidney histology. The positive control used was 250 ug/kg bw of the mature form of recombinant human BMP-7 (rhmBMP-7).
A stock solution (70 mg/ml) of the test article (SEQ ID #45) was made by dissolving it in 20 mM Acetate (ph 4.2). The stock solution was further diluted into phosphate buffered saline (PBS, pH 7.2) plus 5% Mannitol to compound concentrations of 14 mg/ml (28 mg/kg dose), 1.4 mg/ml (2.8 mg/kg dose) and 0.14 mg/ml (0.28 mg/kg dose).
Cisplatin was administered via i.p. injection (40 ug/kg bw) at time zero. Administration of therapeutic dosing of the compound, the rhmBMP-7 positive control and vehicle negative control were by slow bolus i.v. injection through the tail vein at five time points: 2 hours before the administration of cisplatin, then at 24 hours, 48 hours, 72 hours and 96 hours post cisplatin administration. Blood samples were collected through the tail vein at time points of 0, 24, 48, 72 and 96 hours. At seven day sample was collected by exsanguination at sacrifice. Serum was prepared from the blood samples and analyzed for creatinine concentration. The serum concentration of creatinine, a byproduct of muscle activity that is released into the blood stream and cleared through the kidneys, is a marker of kidney function that tends to rise when kidney function becomes severely compromised (FIG. 18).
Upon sacrifice at seven days, the kidneys were harvested, fixed in formalin and imbedded in paraffin. They were then sagitally sectioned and stained in H&E stain. Kidney sections were also stained with anti-bodies against proliferating cell nuclear antigen (PCNA) (to identify sites of cell regeneration), macrophages, ICAM-1, and smooth muscle. Also collected at sacrifice were tissues at and around the injection site (FIG. 19A-FIG. 19B).

[5] = system: mouse model of nephrotoxic serum nephritis; assay: Nephrotoxic serum nephritis (NTN) model of chronic renal injury; assay type: in vivo; conditions: oral 5 mg/kg/24 hr
Experimental: Attenuation of renal fibrosis progression by Thrasos compound in a mouse model of nephrotoxic serum nephritis. FIG. 8A: Kidney section of vehicle-treated animal, FIG. 8B: Kidney section of animal received oral administration of compound SEQ ID NO 45 (5 mg/kg/24 hr).
Nephrotoxic serum nephritis (NTN) is a model of progressive chronic renal injury. Mice given injections of nephrotoxic serum (NTS) develop glomerulonephritis, leading to tubulointerstitial disease associated with EMT, and ultimately renal fibrosis, over a period of about six weeks. […] In these studies, BMP-7 was able to restore expression of E-cadherin proteins in previously damaged tubules. […] For a review of the above see, Zeisberg et al., Nature Medicine, 9; 7 pp 964-968, (2003) and Kalluri et al., J. Clin Investigation 112:1776-1784 (2003).

With CYFDDSSNVLCKKYRS [SEQ ID NO 45] as the sequence, how does the renal interstitial fibrosis [1] read?
The renal interstitial fibrosis was “effectively reversed renal interstitial fibrosis”.

What about the Smad1 translocation [2] of the same sequence?
Its Smad1 translocation is “Smad1 Translocation”.

And the cisplatin-induced apoptosis [3]?
The cisplatin-induced apoptosis was “inhibits cisplatin-induced apoptosis”.

What about the “cisplatin-induced inflammation of the kidney cortex” value ([4]; 2.8 mg/kg bw) of the same sequence?
Its value is “significantly reduced”.

And the ICAM-1 release ([4]; 2.8 mg/kg bw, kidney sections)?
The ICAM-1 release was “reduced”.

What about the “degree of cellular regeneration (PCNA)” value ([4]; 2.8 mg/kg bw, kidney sections) of the same sequence?
Its value is “increased”.

And the macrophage infiltration ([4]; 2.8 mg/kg bw, kidney sections)?
Its macrophage infiltration is “reduced”.

What about the smooth muscle loss ([4]; 2.8 mg/kg bw, kidney sections) of the same sequence?
The smooth muscle loss was “reduced”.

What about the “cisplatin-induced level of creatinine in serum” value ([4]; 0.28, 2.8 and 28 mg/kg bw i.v.) of the same sequence?
Its value is “reduces the cisplatin-induced level of creatinine in serum”.

And the “reduction of serum creatinine rise following cisplatin, versus positive control” value ([4]; highest dose (28 mg/kg), positive control rhmBMP-7)?
Its value is “more efficacious than the positive control”.

What about the “nephrotoxic effects of cisplatin exposure” value ([4]; rat, in vivo) of the same sequence?
The value was “can reduce or ameliorate the nephrotoxic effects of cisplatin exposure”.

And the renal fibrosis [5]?
The renal fibrosis was “significantly attenuated progression of renal fibrosis”.

Source: patent publication US8916686B2, “TDF-related compounds and analogs thereof” (Thrasos Innovation, Inc., priority 2004, dated 2014)
